# Test results published in patent publication EP0301861A1, “Cell proliferation inhibitors” (Takeda Chemical Industries, Ltd., priority 1987, dated 1989).
# Assays:
# [1] = system: human umbilical venous endothelial cells; assay: Inhibition of proliferation of human umbilical venous endothelial cells (MTT); format: cell-based; details: Endothelial cell, 72 h, rFGF 2 ng/ml, 3 days of incubation, OD₅₉₀, read-out: IC₅₀
# Procedure: Experiment 3 [Evaluation of inhibition of proliferation of human umbilical venous endothelial cells]
# The human vascular endothelial cells were obtained by subculture of the cells, which had been obtained from human umbilical vein by perfusion with tripsin solution, in the culture medium which had been prepared by addition of 2.5% bovine fetal serum and 2.0 ng/ml of human recombinant fibroblast growth factor (abbreviated as rFGF hereinafter; prepared in Biotechnology Institute of our company) to GIT medium (Daigo Eiyou Kagaku).
# A hundred µl of the suspension of 2 x 10³ human vascular endothelial cells was introduced to a 96-well culture plate (Nunc, 1-67008) and incubated in a gas-controlled thermostat. On the next day rFGF and 100 µl of a medium containing different concentrations of the test substance were added, so that the final concentration of rFGF might be 2 ng/ml. The test substance was dissolved in dimethylsufoxide (DMSO hereinafter) solution, and the resultant solution was diluted so that the final DMSO concentration might be 0.25% or less. After 3 days of incubation, the culture medium containing the test substance was aspirated off, 100 µl of 1 mg/ml MTT solution (3-(4,5-dimethyl-2-thiazolyl)-2,5-diphenyl-2H-tetrazolium bromide dissolved in the culture medium) was added, and the mixture was kept warm for 4 hours. Then 100 µl of 10% SDS solution (aqueous solution of sodium dodecylsulfate) was added and kept warm for 5 - 6 hours, so that the cells and MTT pigment were solubilized, and the OD₅₉₀ value was determined by spectrophotometer. The OD value of the control sample containing no test substance was taken as 100%, and the endothelial cell growth-inhibitory activity of the test substance was compared on the basis of the IC₅₀ value, the concentration of a compound at which 50% OD value is observed.
# [2] = target: T1, 5-lipoxygenase from guinea pig polymorphonuclear leukocytes (Cavia porcellus, UniProt A0A286X958); assay: Inhibition of 5-lipoxygenase; format: biochemical; details: 10⁻⁵ M; 25µM [1-¹⁴C]arachidonic acid as substrate, 25°C
# T1 construct: from guinea pig peritoneal macrophage; from tissue
# T1 sequence (A0A286X958 1-674): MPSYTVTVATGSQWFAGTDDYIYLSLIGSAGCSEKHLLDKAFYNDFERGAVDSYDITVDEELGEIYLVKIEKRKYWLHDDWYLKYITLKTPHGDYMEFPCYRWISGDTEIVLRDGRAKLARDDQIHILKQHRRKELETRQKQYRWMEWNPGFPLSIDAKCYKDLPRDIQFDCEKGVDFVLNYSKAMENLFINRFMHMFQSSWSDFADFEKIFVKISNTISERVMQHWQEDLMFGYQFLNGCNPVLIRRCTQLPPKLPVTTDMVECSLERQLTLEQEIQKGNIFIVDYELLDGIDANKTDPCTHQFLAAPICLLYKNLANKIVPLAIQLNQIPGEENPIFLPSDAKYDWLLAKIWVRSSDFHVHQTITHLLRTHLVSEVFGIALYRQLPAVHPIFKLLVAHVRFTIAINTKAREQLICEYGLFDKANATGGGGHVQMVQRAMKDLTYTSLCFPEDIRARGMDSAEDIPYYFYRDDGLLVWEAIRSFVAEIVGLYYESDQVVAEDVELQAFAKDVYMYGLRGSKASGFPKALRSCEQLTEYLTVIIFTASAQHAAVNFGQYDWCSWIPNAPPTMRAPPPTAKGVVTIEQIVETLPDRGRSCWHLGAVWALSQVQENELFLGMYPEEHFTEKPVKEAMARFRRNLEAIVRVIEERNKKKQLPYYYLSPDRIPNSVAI
# Procedure: According to the routine method these ingredients were mixed and compressed by a tableting machine. Experiment 1 [Inhibition (10⁻⁵ M) of 5-lipoxygenase from guinea pig polymorphonuclear leukocytes]
# 5-Lipoxygenase used was the enzyme preparation prepared from guinea pig […]. For determination of the activity of lypoxygenase 25µM [1-¹⁴C]arachidonic acid (5 x 10⁴ cpm) as the substrate, 50 mM phosphate buffer solution (pH 7.4), 2 mM CaCl₂, 2 mM ATP, and a reaction mixture containing the enzyme (200µl) were used. After preincubation at 25°C for 2 minutes, [1-¹⁴C]arachidonic acid (5 x 10⁴ cpm) was added, and allowed to react at 25°C for 3 minutes; the resultant mixture was made acidic, and arachidonic acid and its metabolites were extracted with ether. Radioactivity of the ether layer was determined by silica gel thin layer chromatography using a mixture of petroleum ether:ethylether:acetic acid (15:85:0.1) as the eluant and the elution was performed at -10°C. After elution, the thin layer plate was subjected to autoradiography, the radioactive fractions were scraped out, and the radioactivity of the product was determined by counting. The agent was added two minutes before the beginning of the reaction.
# [3] = system: IL-2-dependent cells (NKC-3); assay: Inhibition of growth of IL-2-dependent cells (NKC-3) (MTT); format: cell-based; details: NKC-3 cells with IL-2, 37°C for 20 hours, absorbance at 590 nm, read-out: IC₅₀
# Procedure: Experiment 4 [Evaluation of inhibition of growth of IL-2-dependent cells (NKC-3)]
# To each well of a 96-well microplate, 50 µl of NKC-3 cells (4 x 10⁵ cells/well), 20 µl of IL-2 solution (0.067 U/ml), and 40 µl of the test substance (DMSO solution) were added, which was incubated at 37°C for 20 hours (culture medium: RPMI1640-20%ECS). To each well 20 µl of MTT solution was added,which was kept at 37°C for 4 hours. Then 100 µl of 10% SDS solution was added to each well, which was kept still at 37°C overnight so that the cells and MTT pigment were solubilized, and the absorbance at 590 nm was measured by spectrophotometer. […] Compound No. IC₅₀ (M) 5 4.1 x 10⁻⁵
SMILES,IC50 [1] [µg/mL],Inhibitory activity (%) [2] [%],IC50 [3] [µM]
CC1=C(C(CCCCC(=O)NO)c2ccccc2)C(=O)c2ccccc2C1=O (stereo not shown) [compound 12],0.08,–,–
CC1=C(C)C(=O)C(C(CCCCCC(=O)NO)c2ccc(C)cc2)=C(C)C1=O (stereo not shown) [compound 7],1.25,–,–
CC1=C(C(CCCC(=O)NO)c2ccccc2)C(=O)c2ccccc2C1=O (stereo not shown) [compound 11],5,–,–
CC1=C(C(CCCCCC(=O)NO)c2ccc(F)cc2)C(=O)c2ccccc2C1=O (stereo not shown) [compound 14],< 0.63,89.7,–
CC1=C(C)C(=O)C(C(CCCCC(=O)NO)c2ccccc2)=C(C)C1=O (stereo not shown) [compound 2],0.63,–,–
COc1ccc(C(CCCCC(=O)NO)C2=C(C)C(=O)C(C)=C(C)C2=O)cc1 (stereo not shown) [compound 4],0.63,–,–
CC1=C(C(CCCCC(=O)NO)c2cccs2)C(=O)c2ccccc2C1=O (stereo not shown) [Compound No.13],< 0.08,–,–
COC1=C(OC)C(=O)C(C(CCCC(=O)NO)c2ccccc2)=C(C)C1=O (stereo not shown) [compound 17],20,–,–
COC1=C(OC)C(=O)C(C(CCCCCC(=O)NO)c2ccccc2)=C(C)C1=O (stereo not shown) [compound 16],1.25,–,–
CC1=C(C)C(=O)C(C(CCC(=O)NO)c2ccccc2)=C(C)C1=O (stereo not shown) [Compound No.1],10,–,–
CC1=C(C)C(=O)C(C(CCCCCC(=O)NO)c2ccccc2)=C(C)C1=O (stereo not shown) [Compound No.5],0.63,74.6,41
"CC1=C(C)C(=O)C(C(CCCCCC(=O)NO)c2ccc(F)cc2)=C(C)C1=O (stereo not shown) [Compound No.6, 7-(4-fluorophenyl)-7-(3,5,6-trimethyl-1,4-benzoquinon-2-yl)-heptanohydroxamic acid]",1.25,79.3,–
"COc1ccc(C(CCCCCC(=O)NO)C2=C(C)C(=O)C(C)=C(C)C2=O)cc1 (stereo not shown) [Compound No.8, 7-(4-methoxyphenyl)-7-(3,5,6-trimethyl-1,4-benzoquinon-2-yl)-heptanohydroxamic acid]",0.63,83.8,–
CC1=C(C)C(=O)C(C(CCCCCC(=O)NO)c2ccc(Cl)cc2)=C(C)C1=O (stereo not shown) [compound 9],1.25,–,–
CC1=C(C)C(=O)C(C(CCCCC(=O)NO)c2ccc(F)cc2)=C(C)C1=O (stereo not shown) [compound 3],1.25,–,–
CC1=C(C(CCCCCCC(=O)NO)c2ccccc2)C(=O)c2ccccc2C1=O (stereo not shown) [compound 15],< 0.63,–,–
CC1=C(C)C(=O)C(C(CCCCCCC(=O)NO)c2ccccc2)=C(C)C1=O (stereo not shown) [compound 10],25,–,–
